Measurements reported in the supplement of paper PMC5579334.
± gives the standard deviation of the averaged measurements.

Tests used:
YST-1 [1] = experiment: drug sensitivity score (DSS, CellTiter-Glo viability, 72 h) (DSS (dimensionless)); higher = more sensitive; extreme values may be limits of the assay
Procedure, shortened: (§1)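 After seeding 750–1000 cells per well of MPNST cell lines or primary human Schwann cells into 384-well plates preprinted with each compound at five concentrations in 10-fold steps, plates were kept 72 h at 37 °C, 5% CO2. Viability was read as CellTiter-Glo ATP luminescence relative to vehicle and positive-control wells, with duplicates averaged where present. The data were fitted with four-parameter logistic models. Drug sensitivity score and relative IC50, censored at the top concentration, derive from the fits, and percent inhibition refers to the top concentration.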

HS-PSS [2] = experiment: as above
Procedure, shortened: as §1

S462 [3] = experiment: as above
Procedure, shortened: as §1

HS-Sch-2 [4] = experiment: as above
Procedure, shortened: as §1

[5] = tested on: HSC1 (primary human Schwann cells); experiment: as above
Procedure, shortened: as §1

S1507-2 [6] = experiment: as above
Procedure, shortened: as §1

[7] = tested on: HSC2 (primary human Schwann cells); experiment: as above
Procedure, shortened: as §1

ST8814 [8] = experiment: as above
Procedure, shortened: as §1

STS26T [9] = experiment: as above
Procedure, shortened: as §1

HS-PSS [10] = experiment: drug sensitivity score (DSS, CellTox-Green cytotoxicity, 72 h) (DSS (dimensionless)); higher = more cytotoxic; extreme values may be limits of the assay
Procedure, shortened: (§2)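 For 72 h at 37 °C, MPNST cell lines and primary human Schwann cells were exposed in 384-well plates to five 10-fold compound dilutions. CellTox-Green, added before seeding at a final 1:1000 dilution, gave fluorescence from DNA released by disrupted cells. Signals were scaled to vehicle and positive-control wells, cultures failing plate quality control were left out, and four-parameter logistic fits were applied. Relative IC50 and drug sensitivity score were derived from the fits, with IC50 censored at the top concentration.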

[11] = tested on: HSC1 (primary human Schwann cells); experiment: as above
Procedure, shortened: as §2

S1507-2 [12] = experiment: as above
Procedure, shortened: as §2

[13] = tested on: HSC2 (primary human Schwann cells); experiment: as above
Procedure, shortened: as §2

ST8814 [14] = experiment: as above
Procedure, shortened: as §2

STS26T [15] = experiment: as above
Procedure, shortened: as §2

YST-1 [16] = experiment: % inhibition of CellTiter-Glo viability at highest tested concentration (72 h), relative to DMSO and benzethonium chloride controls; higher = more inhibition
Procedure, shortened: as §1

HS-PSS [17] = experiment: as above
Procedure, shortened: as §1

S462 [18] = experiment: as above
Procedure, shortened: as §1

HS-Sch-2 [19] = experiment: as above
Procedure, shortened: as §1

[20] = tested on: HSC1 (primary human Schwann cells); experiment: as above
Procedure, shortened: as §1

S1507-2 [21] = experiment: as above
Procedure, shortened: as §1

[22] = tested on: HSC2 (primary human Schwann cells); experiment: as above
Procedure, shortened: as §1

ST8814 [23] = experiment: as above
Procedure, shortened: as §1

STS26T [24] = experiment: as above
Procedure, shortened: as §1

Row | Compound | drug sensitivity score (YST-1 [1]) | drug sensitivity score (HS-PSS [2]) | drug sensitivity score (S462 [3]) | drug sensitivity score (HS-Sch-2 [4]) | drug sensitivity score [5] | drug sensitivity score (S1507-2 [6]) | drug sensitivity score [7] | drug sensitivity score (ST8814 [8]) | drug sensitivity score (STS26T [9]) | drug sensitivity score (HS-PSS [10]) | drug sensitivity score [11] | drug sensitivity score (S1507-2 [12]) | drug sensitivity score [13] | drug sensitivity score (ST8814 [14]) | drug sensitivity score (STS26T [15]) | % inhibition (YST-1 [16]) | % inhibition (HS-PSS [17]) | % inhibition (S462 [18]) | % inhibition (HS-Sch-2 [19]) | % inhibition [20] | % inhibition (S1507-2 [21]) | % inhibition [22] | % inhibition (ST8814 [23]) | % inhibition (STS26T [24])
1 | O=C(/C=C/c1cccc(S(=O)(=O)Nc2ccccc2)c1)NO [Belinostat] (max concentration tested 10000 nM) | 18.1 | 10.8 | 12.7 ± 0.28 | 13.7 | 15.4 | 16.6 ± 0.76 | 13.2 | 17.2 | 13 | 4.69 | 8.65 | 12.2 ± 2 | 8.85 | 12.4 | 12.7 | 101% | 88.1% | 102.5 ± 0.29% | 101% | 102% | 104 ± 1.3% | 101% | 102% | 98.9%
2 | COc1cc(O)c2c(c1)/C=C/C[C@H](O)[C@H](O)C(=O)/C=C\C[C@H](C)OC2=O [(5Z)-7-Oxozeaenol] (max concentration tested 10000 nM) | 1.67 | 1.02 | 6.71 ± 1.1 | 2.24 | 6.52 | 3.4 ± 0.83 | 7.92 | 7.1 | 6.93 | 0 | 0.659 | 2.79 ± 3 | 1.01 | 0.979 | 2.39 | 26.6% | 29.8% | 74.1 ± 6.8% | 39.8% | 73.1% | 51.8 ± 16% | 76.9% | 70.6% | 68.6%
3 | O=NN(CCCl)C(=O)NC1CCCCC1 [Lomustine] (max concentration tested 10000 nM) | 0 | 0 | 0 | 0 | 0 | 0 | 0 | 0 | 0 | 0 | 0 | 0 | 0 | 0 | 0 | 0.78% | -0.39% | -9.57 ± 4% | -15% | -0.952% | -7.84 ± 0.87% | -3.35% | -8.13% | 0.864%
4 | Nc1ncnc2c1nc(N)n2[C@@H]1O[C@H](CO)[C@@H](O)[C@H]1O [8-amino-adenosine] (max concentration tested 50000 nM) | 22.8 | 17.9 | 20.2 ± 0.77 | 19.3 | 18.1 | 21.3 ± 0.37 | 15.6 | 19.6 | 19.9 | 3.6 | 4.02 | 12.1 ± 6.4 | 4.74 | 14.7 | 16.9 | 102% | 101% | 99.7 ± 0.63% | 102% | 98% | 99.405 ± 0.063% | 96.7% | 98.4% | 100%
5 | CC1=NN(c2ccc(C(=O)O)cc2)C(=O)C1=Cc1ccc(-c2cc(C)c(C)cc2[N+](=O)[O-])o1 [C646] (max concentration tested 25000 nM) | 0.68 | 0.34 | 0.301 ± 0.43 | 0 | 0 | 0.311 ± 0.44 | 0 | 0 | 0 | 0 | 0 | 2.69 ± 3.8 | 1.71 | 0 | 0 | 19.6% | 17.2% | 1.13 ± 8.9% | -1.27% | -3.92% | 9.84 ± 4.1% | -4.28% | 3.46% | 1.97%
6 | Nc1cc(C(F)(F)F)c(-c2cc(N3CCOCC3)nc(N3CCOCC3)n2)cn1 [Buparlisib] (max concentration tested 10000 nM) | 12.1 | 6.19 | 8.35 ± 0.34 | 8.73 | 6.85 | 8.72 ± 0.83 | 7.01 | 8.12 | 9.07 | 0 | 5.07 | 5.23 ± 2.9 | 7.46 | 4.69 | 8.28 | 95.3% | 70.9% | 97.02 ± 0.16% | 95.2% | 85.1% | 88.421 ± 0.034% | 88.1% | 90.9% | 96.8%
7 | C=CCN(/C=C1/C(=O)O[C@H](COC)[C@@]2(C)C1=C(O)C(=O)C1=C2[C@H](OC(C)=O)C[C@]2(C)C(=O)CC[C@@H]12)CC=C [Sonolisib] (max concentration tested 10000 nM) | 0 | 0 | 0.831 ± 1.2 | 0 | 0 | 0.798 ± 0.34 | 0.415 | 0.745 | 0.263 | 0 | 0 | 0 | 0 | 0 | 0 | 7.12% | 3.89% | 17.1 ± 5.5% | -0.71% | 6.67% | 15.9 ± 0.9% | 13.1% | 7.84% | 11.4%
8 | O=[N+]([O-])c1ccc2c(c1)S(=O)(=O)C=C2 [Stattic] (max concentration tested 50000 nM) | 17.4 | 18.7 | 11.3 ± 3.2 | 18.6 | 16.8 | 7.88 ± 2.4 | 13.9 | 14.9 | 13.7 | 12.8 | 15.6 | 5.93 ± 1.3 | 9.26 | 7.96 | 12 | 101% | 101% | 96.03 ± 0.43% | 100% | 98.5% | 95.7 ± 1.3% | 98.3% | 94.6% | 95.6%
9 | CN[C@@H]1C[C@H]2O[C@@](C)([C@@H]1OC)n1c3ccccc3c3c4c(c5c6ccccc6n2c5c31)C(=O)N[C@H]4O [UCN-01] (max concentration tested 10000 nM) | 21.8 | 22.1 | 31.03 ± 0.038 | 26.7 | 27.8 | 32.23 ± 0.17 | 30.9 | 27.3 | 27.9 | 6.62 | 15.9 | 15.35 ± 0.12 | 21.7 | 13.8 | 29.4 | 89.8% | 100% | 105.6 ± 0.5% | 102% | 102% | 105 ± 1.4% | 103% | 105% | 104%
10 | CN[C@@H](C)C(=O)N[C@H]1CN(C(=O)CC(C)C)CC[C@H]2CC[C@@H](C(=O)NC(c3ccccc3)c3ccccc3)N2C1=O [AT-406] (max concentration tested 10000 nM) | 0 | 0.14 | 0 | 0 | 0 | 0.378 ± 0.28 | 0 | 0 | 12.4 | 0 | 0 | 13.1 ± 11 | 0 | 0 | 22.4 | 8.35% | 14.3% | 3.84 ± 5.2% | 10.6% | -7.18% | 14.97 ± 0.11% | -4.84% | 3.57% | 56%
11 | CCCc1cc(C)[nH]c(=O)c1CNC(=O)c1cc(-c2ccnc(N3CCN(C)CC3)c2)cc2c1cnn2C(C)C [GSK343] (max concentration tested 10000 nM) | 1.05 | 5.59 | 2.58 ± 1.2 | 4.46 | 4.34 | 5.498 ± 0.026 | 2.64 | 5.22 | 3.88 | 5.71 | 0 | 6.1 ± 1.5 | 0 | 5.69 | 6.48 | 33.9% | 94.3% | 49.6 ± 14% | 95.9% | 47% | 86 ± 10% | 34.4% | 94.4% | 84.1%
12 | O=C(c1ccc(OCCN2CCCCC2)cc1)c1c(-c2ccc(O)cc2)sc2cc(O)ccc12 [Raloxifene] (max concentration tested 10000 nM) | 1.7 | 4.8 | 0.649 ± 0.51 | 7.33 | 2.17 | 2.99 ± 0.22 | 3.34 | 1.9 | 1.99 | 0 | 0 | 1.4 ± 1.7 | 0 | 1.85 | 0.897 | 25.5% | 44.5% | 19.7 ± 3.4% | 85.8% | 42.1% | 54.55 ± 0.068% | 41.8% | 36.5% | 41.3%
13 | C[C@]1(c2nc3c(C(N)=O)cccc3[nH]2)CCCN1 [Veliparib] (max concentration tested 10000 nM) | 4.89 | 0 | 0.0431 ± 0.061 | 0 | 0.338 | 1.93 ± 2.7 | 0.954 | 0 | 0 | 0 | 0 | 0 | 0 | 0 | 0 | 49% | 10% | 12 ± 3.7% | 2.46% | 14.6% | 10.9 ± 5.5% | 18.2% | 9.88% | 10.6%
